Experimental data: ChEMBL document CHEMBL2375222, “Synthesis of 1H-1,2,3-triazole linked β-lactam-isatin bi-functional hybrids and preliminary analysis of in vitro activity against the protozoal parasite Trichomonas vaginalis” (Eur J Med Chem, 2013)
pIC50: −log10 of the molar value.

Columns and labels:
CHO-K1 [1] = assay: Cytotoxicity against CHOK1 cells assessed as change in cell morphology at 100 uM by light microscopy; format: cell-based, Cricetulus griseus; conditions: chinese hamster, cho-k1, 100 µM
Trichomonas vaginalis [2] = assay: […] activity against Trichomonas vaginalis G3 at 10 uM after 24 hrs by hemocytometry; format: functional; conditions: G3, 24 h
Trichomonas vaginalis [3] = assay: […] activity against Trichomonas vaginalis G3 at 100 uM after 24 hrs by hemocytometry; format: functional; conditions: G3, 24 h
CHO-K1 [4] = assay: Cytotoxicity against CHOK1 cells assessed as change in cell morphology by light microscopy; format: cell-based; conditions: Cricetulus griseus
Trichomonas vaginalis [5] = assay: […] activity against Trichomonas vaginalis G3 after 24 hrs by hemocytometry; format: functional; conditions: G3, 24 h

## O=C1C(=O)N(Cc2cn([C@@H]3C(=O)N(C4CCCCC4)[C@@H]3/C=C/c3ccccc3)nn2)c2ccc(Br)cc21 (relative stereo)
CHO-K1 [1]
  Activity: Toxic
Trichomonas vaginalis [2]
  inhibition at 10 µM: 4.9%
Trichomonas vaginalis [3]
  inhibition at 100 µM: 100%

## O=C1C(=O)N(Cc2cn([C@@H]3C(=O)N(c4ccc(F)cc4)[C@@H]3/C=C/c3ccccc3)nn2)c2ccccc21 (relative stereo)
Trichomonas vaginalis [2]
  inhibition at 10 µM: 38.5%
CHO-K1 [4]
  pIC50: 5.11
Trichomonas vaginalis [3]
  inhibition at 100 µM: 100%
Trichomonas vaginalis [5]
  pIC50: 5.11

## O=C1C(=O)N(Cc2cn([C@@H]3C(=O)N(C4CCCCC4)[C@@H]3/C=C/c3ccccc3)nn2)c2ccc(Cl)cc21 (relative stereo)
CHO-K1 [1]
  Activity: Toxic
Trichomonas vaginalis [2]
  inhibition at 10 µM: 7.3%
Trichomonas vaginalis [3]
  inhibition at 100 µM: 100%

## Cc1ccc(N2C(=O)[C@@H](n3cc(CN4C(=O)C(=O)c5ccccc54)nn3)[C@H]2/C=C/c2ccccc2)cc1
CHO-K1 [1]
  Activity: Toxic
Trichomonas vaginalis [2]
  inhibition at 10 µM: 4.9%
Trichomonas vaginalis [3]
  inhibition at 100 µM: 100%
Trichomonas vaginalis [5]
  pIC50: 4.56

## O=C1C(=O)N(Cc2cn([C@@H]3C(=O)N(Cc4ccccc4)[C@@H]3/C=C/c3ccccc3)nn2)c2ccccc21 (relative stereo)
CHO-K1 [1]
  Activity: Toxic
Trichomonas vaginalis [2]
  inhibition at 10 µM: 7.8%
Trichomonas vaginalis [3]
  inhibition at 100 µM: 100%
Trichomonas vaginalis [5]
  pIC50: 5.06

## O=C1C(=O)N(Cc2cn([C@@H]3C(=O)N(c4ccc(Cl)cc4)[C@@H]3/C=C/c3ccccc3)nn2)c2ccccc21 (relative stereo)
CHO-K1 [1]
  Activity: Toxic
Trichomonas vaginalis [2]
  inhibition at 10 µM: 80.5%
Trichomonas vaginalis [3]
  inhibition at 100 µM: 100%
Trichomonas vaginalis [5]
  pIC50: 5.08

## Cc1ccc2c(c1)C(=O)C(=O)N2Cc1cn([C@@H]2C(=O)N(c3ccccc3)[C@@H]2/C=C/c2ccccc2)nn1
CHO-K1 [1]
  Activity: Toxic
Trichomonas vaginalis [2]
  inhibition at 10 µM: 0%
Trichomonas vaginalis [3]
  inhibition at 100 µM: 82.6%

## Cc1ccc(N2C(=O)[C@@H](n3cc(CN4C(=O)C(=O)c5cc(F)ccc54)nn3)[C@H]2/C=C/c2ccccc2)cc1 (relative stereo)
CHO-K1 [1]
  Activity: Toxic
Trichomonas vaginalis [2]
  inhibition at 10 µM: 58.5%
Trichomonas vaginalis [3]
  inhibition at 100 µM: 100%
Trichomonas vaginalis [5]
  pIC50: 4.66

## O=C1C(=O)N(Cc2cn([C@@H]3C(=O)N(c4ccccc4)[C@@H]3/C=C/c3ccccc3)nn2)c2ccccc21 (relative stereo)
CHO-K1 [1]
  Activity: Toxic
Trichomonas vaginalis [2]
  inhibition at 10 µM: 100%
Trichomonas vaginalis [3]
  inhibition at 100 µM: 100%

## O=C1C(=O)N(Cc2cn([C@@H]3C(=O)N(c4ccc(Cl)cc4)[C@@H]3/C=C/c3ccccc3)nn2)c2ccc(Cl)cc21 (relative stereo)
CHO-K1 [1]
  Activity: Toxic
Trichomonas vaginalis [2]
  inhibition at 10 µM: 53.7%
Trichomonas vaginalis [3]
  inhibition at 100 µM: 100%
Trichomonas vaginalis [5]
  pIC50: 5.00

## O=C1C(=O)N(Cc2cn([C@@H]3C(=O)N(c4ccc(F)cc4)[C@@H]3/C=C/c3ccccc3)nn2)c2ccc(Br)cc21 (relative stereo)
CHO-K1 [1]
  Activity: Toxic
Trichomonas vaginalis [2]
  inhibition at 10 µM: 0%
Trichomonas vaginalis [3]
  inhibition at 100 µM: 100%

## O=C1C(=O)N(Cc2cn([C@@H]3C(=O)N(C4CCCCC4)[C@@H]3/C=C/c3ccccc3)nn2)c2ccccc21
CHO-K1 [1]
  Activity: Toxic
Trichomonas vaginalis [2]
  inhibition at 10 µM: 26.8%
Trichomonas vaginalis [3]
  inhibition at 100 µM: 100%

## O=C1C(=O)N(Cc2cn([C@@H]3C(=O)N(Cc4ccccc4)[C@@H]3/C=C/c3ccccc3)nn2)c2ccc(F)cc21 (relative stereo)
CHO-K1 [1]
  Activity: Toxic
Trichomonas vaginalis [2]
  inhibition at 10 µM: 0%
Trichomonas vaginalis [3]
  inhibition at 100 µM: 19.6%

## O=C1C(=O)N(Cc2cn([C@@H]3C(=O)N(c4ccccc4)[C@@H]3/C=C/c3ccccc3)nn2)c2ccc(F)cc21 (relative stereo)
CHO-K1 [1]
  Activity: Toxic
Trichomonas vaginalis [2]
  inhibition at 10 µM: 58.5%
Trichomonas vaginalis [3]
  inhibition at 100 µM: 100%
Trichomonas vaginalis [5]
  pIC50: 5.15

## O=C1C(=O)N(Cc2cn([C@@H]3C(=O)N(c4ccccc4)[C@@H]3/C=C/c3ccccc3)nn2)c2ccc(Br)cc21 (relative stereo)
CHO-K1 [1]
  Activity: Toxic
Trichomonas vaginalis [2]
  inhibition at 10 µM: 83%
Trichomonas vaginalis [3]
  inhibition at 100 µM: 100%
Trichomonas vaginalis [5]
  pIC50: 5.03

## Cc1ccc2c(c1)C(=O)C(=O)N2Cc1cn([C@@H]2C(=O)N(C3CCCCC3)[C@@H]2/C=C/c2ccccc2)nn1 (relative stereo)
CHO-K1 [1]
  Activity: Toxic
Trichomonas vaginalis [2]
  inhibition at 10 µM: 9.8%
Trichomonas vaginalis [3]
  inhibition at 100 µM: 95.7%
Trichomonas vaginalis [5]
  pIC50: 4.35

## Cc1ccc(N2C(=O)[C@@H](n3cc(CN4C(=O)C(=O)c5cc(Cl)ccc54)nn3)[C@H]2/C=C/c2ccccc2)cc1 (relative stereo)
CHO-K1 [1]
  Activity: Toxic
Trichomonas vaginalis [2]
  inhibition at 10 µM: 48.8%
Trichomonas vaginalis [3]
  inhibition at 100 µM: 100%
Trichomonas vaginalis [5]
  pIC50: 5.00

## O=C1C(=O)N(Cc2cn([C@@H]3C(=O)N(C4CCCCC4)[C@@H]3/C=C/c3ccccc3)nn2)c2ccc(F)cc21 (relative stereo)
CHO-K1 [1]
  Activity: Toxic
Trichomonas vaginalis [2]
  inhibition at 10 µM: 0%
Trichomonas vaginalis [3]
  inhibition at 100 µM: 100%

## O=C1C(=O)N(Cc2cn([C@@H]3C(=O)N(c4ccc(F)cc4)[C@@H]3/C=C/c3ccccc3)nn2)c2ccc(Cl)cc21 (relative stereo)
CHO-K1 [1]
  Activity: Toxic
Trichomonas vaginalis [2]
  inhibition at 10 µM: 14.6%
Trichomonas vaginalis [3]
  inhibition at 100 µM: 100%

## O=C1C(=O)N(Cc2cn([C@@H]3C(=O)N(c4ccc(F)cc4)[C@@H]3/C=C/c3ccccc3)nn2)c2ccc(F)cc21 (relative stereo)
CHO-K1 [1]
  Activity: Toxic
Trichomonas vaginalis [2]
  inhibition at 10 µM: 19.5%
Trichomonas vaginalis [3]
  inhibition at 100 µM: 100%

## O=C1C(=O)N(Cc2cn([C@@H]3C(=O)N(c4ccccc4)[C@@H]3/C=C/c3ccccc3)nn2)c2ccc(Cl)cc21 (relative stereo)
CHO-K1 [1]
  Activity: Toxic
Trichomonas vaginalis [2]
  inhibition at 10 µM: 61%
Trichomonas vaginalis [3]
  inhibition at 100 µM: 100%
Trichomonas vaginalis [5]
  pIC50: 5.01

## O=C1C(=O)N(Cc2cn([C@@H]3C(=O)N(Cc4ccccc4)[C@@H]3/C=C/c3ccccc3)nn2)c2ccc(Cl)cc21 (relative stereo)
CHO-K1 [1]
  Activity: Toxic
Trichomonas vaginalis [2]
  inhibition at 10 µM: 7.3%
Trichomonas vaginalis [3]
  inhibition at 100 µM: 67.4%
